From ChEMBL document CHEMBL1140105, “Synthesis of bivalent beta2-adrenergic and adenosine A1 receptor ligands” (J Med Chem, 2008) come the findings set out here.

Activity calls are given as the source filed them. The calls are words filed in the database; no cut-off is given here.

Assay [1] concerns the target T1, Beta-2 adrenergic receptor (Mesocricetus auratus, UniProt P04274). In words: Agonist activity at adrenergic beta2 receptor in Syrian hamster DDT1 MF2 cells assessed as stimulation of cAMP accumulation by radioimmunoassay in presence of 1 uM DPCPX. Format: functional, cell-based.
Assay [2] in a line: Displacement of [3H]DPCPX from adenosine A1 receptor in Syrian hamster DDT1 MF2 cells. Format: cell-based, Mesocricetus auratus.
Assay [3] addresses T1, Beta-2 adrenergic receptor. In words: Displacement of [125I](-)-iodopindolol from adrenergic beta2 receptor in Syrian hamster DDT1 MF2 cells. Format: cell-based.
The target in assay [4] is Beta-2 adrenergic receptor (Mesocricetus auratus) (UniProt P04274). In words: Displacement of [125I](-)-iodopindolol from adrenergic beta2 receptor in Syrian hamster DDT1 MF2 cells at 10 uM. Format: cell-based.
Assay [5] has the same target. In words: Agonist activity at adrenergic beta2 receptor in Syrian hamster DDT1 MF2 cells assessed as stimulation of cAMP accumulation up to 100 uM by radioimmunoassay in presence of 1 uM DPCPX. Type of assay: functional, cell-based.
Assay [6] shares this target. In words: Agonist activity at adrenergic beta2 receptor in Syrian hamster DDT1 MF2 cells assessed as stimulation of cAMP accumulation by radioimmunoassay in presence of 1 uM DPCPX relative to (-)-isoproterenol. Format: functional, cell-based.

Sequence of Beta-2 adrenergic receptor (Mesocricetus auratus) (P04274 whole entry, looked up): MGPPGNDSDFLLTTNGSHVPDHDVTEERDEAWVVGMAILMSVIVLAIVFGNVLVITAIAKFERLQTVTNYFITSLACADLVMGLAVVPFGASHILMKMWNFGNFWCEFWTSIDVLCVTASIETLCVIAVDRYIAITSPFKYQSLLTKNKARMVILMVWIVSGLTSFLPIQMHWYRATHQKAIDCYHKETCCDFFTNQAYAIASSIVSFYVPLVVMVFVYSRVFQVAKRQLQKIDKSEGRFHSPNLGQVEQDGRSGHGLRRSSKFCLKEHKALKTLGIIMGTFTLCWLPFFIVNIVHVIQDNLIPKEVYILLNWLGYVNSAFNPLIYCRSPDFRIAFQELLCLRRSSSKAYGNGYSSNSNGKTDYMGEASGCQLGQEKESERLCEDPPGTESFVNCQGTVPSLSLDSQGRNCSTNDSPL
T1 sequence (P04274 whole entry): as the sequence (P04274 whole entry, looked up) above

Regarding `Nc1cc(C(O)CNCCCCNc2ncnc3c2ncn3[C@@H]2O[C@H](CO)[C@@H](O)[C@H]2O)ccc1O` (stereo not given in full), the concentration giving a half-maximal response (EC50) in assay [1] amounted to 1090 nM.

Take `Nc1cc(C(O)CNCCNc2ncnc3c2ncn3[C@@H]2O[C@H](CO)[C@@H](O)[C@H]2O)ccc1O` (stereo not given in full): the figures for the Ki in assay [2] and in assay [3] were 2750 nM and > 10000 nM, respectively. The compound further came in with an inhibition in assay [4] of 20%. The outcome in assay [5] was inactive. Besides, the Activity in assay [6] came out at 50%.

As for `O=CNc1cc(C(O)CNCCNc2ncnc3c2ncn3[C@@H]2O[C@H](CO)[C@@H](O)[C@H]2O)ccc1O` (stereo not given in full), the values for the inhibition constant Ki in assay [2] and in assay [3] were 1980 nM and > 10000 nM, respectively. In assay [4], this compound yielded an inhibition of 20%. The outcome in assay [5] was inactive.
